Experimental data taken from PubChem BioAssay AID248 (DTP/NCI, 2004).
Inconclusive results and toxic doses are left out. Rule as the data show it: active = T/C of 150% or more; inactive = T/C below 125%.

Test system: L1210 leukemia ip in BDF1 mice, survival T/C
Assay: NCI In Vivo Anticancer Drug Screen. Data for tumor model L1210 Leukemia (intraperitoneal) in B6D2F1 (BDF1) mice
Conditions: endpoint: mean survival time, higher = longer survival
Summary of the method: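 Tumor was transplanted into mice, which were then dosed with test compound or vehicle alone. Survival was recorded for each group, and the treated figure was expressed relative to the control figure.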

[1] = dose: 100.0 mg/kg/injection, schedule: Q01DX009 (ip), vehicle: Klucel (hydroxypropylcellulose) (HPC)
[2] = dose: 200.0 mg/kg/injection, schedule: Q01DX009 (ip), vehicle: Klucel (hydroxypropylcellulose) (HPC)
[3] = dose: 100.0 mg/kg/injection, schedule: Q01DX001 (ip), vehicle: saline
[4] = dose: 200.0 mg/kg/injection, schedule: Q01DX001 (ip), vehicle: saline
[5] = dose: 400.0 mg/kg/injection, schedule: Q01DX001 (ip), vehicle: saline
[6] = dose: 100.0 mg/kg/injection, schedule: Q04DX003 (ip), vehicle: Klucel (hydroxypropylcellulose) (HPC)
[7] = dose: 200.0 mg/kg/injection, schedule: Q04DX003 (ip), vehicle: Klucel (hydroxypropylcellulose) (HPC)
[8] = dose: 400.0 mg/kg/injection, schedule: Q04DX003 (ip), vehicle: Klucel (hydroxypropylcellulose) (HPC)
[9] = dose: 100.0 mg/kg/injection, schedule: Q04DX003 (ip), vehicle: saline
[10] = dose: 200.0 mg/kg/injection, schedule: Q04DX003 (ip), vehicle: saline
[11] = dose: 400.0 mg/kg/injection, schedule: Q04DX003 (ip), vehicle: saline
[12] = dose: 400.0 mg/kg/injection, schedule: Q01DX009 (ip), vehicle: Klucel (hydroxypropylcellulose) (HPC)
[13] = dose: 100.0 mg/kg/injection, schedule: Q01DX009 (ip), vehicle: saline with Tween-80
[14] = dose: 200.0 mg/kg/injection, schedule: Q01DX009 (ip), vehicle: saline with Tween-80
[15] = dose: 50.0 mg/kg/injection, schedule: Q01DX001 (ip), vehicle: saline
[16] = dose: 100.0 mg/kg/injection, schedule: Q01DX009 (ip), vehicle: saline

Measured: T/C

CCCCOC(=O)C1CCCCC1C(=O)OCCCC (stereo not drawn)
inactive: dose: 50.0 mg/kg/injection, schedule: Q01DX009 (ip), vehicle: Klucel (hydroxypropylcellulose) (HPC) 102 % of control | [1] 102 % of control | [2] 90 % of control

O=c1cc[n]2c(n1)[O][Hg]2
inactive: dose: 5.0 mg/kg/injection, schedule: Q01DX001 (ip), vehicle: carboxymethylcellulose (CMC) 98 % of control | dose: 10.0 mg/kg/injection, schedule: Q01DX001 (ip), vehicle: carboxymethylcellulose (CMC) 98 % of control

CCSP(N)(=O)c1ccccc1 (stereo not drawn)
inactive: dose: 75.0 mg/kg/injection, schedule: Q01DX001 (ip), vehicle: saline 101 % of control

CCC(C(=O)O)=C1CCCCC1
inactive: [3] 95 % of control | [4] 95 % of control | [5] 103 % of control

CC(=O)CC(C)(C)NC(=S)NN
inactive: [6] 91 % of control | [7] 101 % of control | [8] 91 % of control

Clc1ccccc1OB(Oc1ccccc1Cl)Oc1ccccc1Cl
inactive: [3] 101 % of control | [4] 95 % of control

CCOC(=O)c1n[nH]c(=S)[nH]c1=S
inactive: dose: 100.0 mg/kg/injection, schedule: Q01DX001 (ip), vehicle: acetone 102 % of control | dose: 200.0 mg/kg/injection, schedule: Q01DX001 (ip), vehicle: acetone 101 % of control | dose: 400.0 mg/kg/injection, schedule: Q01DX001 (ip), vehicle: acetone 107 % of control

Cc1ccc(NC(=O)Oc2ccc(C(C)(C)C)cc2Br)cc1NC(=O)Oc1ccc(C(C)(C)C)cc1Br
inactive: dose: 100.0 mg/kg/injection, schedule: Q01DX009 (ip), vehicle: other 87 % of control | dose: 200.0 mg/kg/injection, schedule: Q01DX009 (ip), vehicle: other 100 % of control | dose: 400.0 mg/kg/injection, schedule: Q01DX009 (ip), vehicle: other 98 % of control

O=[N+]([O-])c1ccc(Cl)c(C(=S)N2CCCCC2)c1
inactive: [6] 99 % of control | [7] 96 % of control | [8] 96 % of control

CC1(C)/C(=C\S(=O)(=O)O)C2CCC1C2 (stereo not drawn)
inactive: [3] 105 % of control | [9] 110 % of control | [4] 105 % of control | [10] 98 % of control | [5] 103 % of control | [11] 101 % of control

COc1ccc(-c2cc(C(=O)O)c3cccc(C(F)(F)F)c3n2)cc1
inactive: [9] 90 % of control

CC(C)(C)C(=O)CC(c1ccccc1)c1ccccc1
inactive: dose: 50.0 mg/kg/injection, schedule: Q01DX001 (ip), vehicle: other 102 % of control | dose: 100.0 mg/kg/injection, schedule: Q01DX001 (ip), vehicle: other 98 % of control | dose: 200.0 mg/kg/injection, schedule: Q01DX001 (ip), vehicle: other 98 % of control | dose: 400.0 mg/kg/injection, schedule: Q01DX001 (ip), vehicle: other 98 % of control

O=C(Cc1ccc(-c2ccccc2)cc1)c1ccccc1
inactive: dose: 100.0 mg/kg/injection, schedule: Q01DX001 (ip), vehicle: saline with Tween-80 94 % of control | dose: 200.0 mg/kg/injection, schedule: Q01DX001 (ip), vehicle: saline with Tween-80 93 % of control | dose: 400.0 mg/kg/injection, schedule: Q01DX001 (ip), vehicle: saline with Tween-80 91 % of control

COc1ccc(NC(=O)Nc2ccc(F)cc2)c(OC)c1
inactive: [1] 91 % of control | [6] 100 % of control | [2] 100 % of control | [7] 91 % of control | [12] 96 % of control | [8] 100 % of control

O=C(Nc1ccccc1F)C(F)(F)F
inactive: [6] 103 % of control | [7] 105 % of control | [8] 97 % of control

CC(C)(C)NC(=O)Oc1cccnc1
inactive: [1] 93 % of control | [2] 102 % of control

O=C(CBr)OCC1CC2C=CC1C2 (stereo not drawn)
inactive: dose: 13.3 mg/kg/injection, schedule: Q01DX Z (ip), vehicle: methylcellulose (MC) 93 % of control | dose: 20.0 mg/kg/injection, schedule: Q01DX Z (ip), vehicle: methylcellulose (MC) 96 % of control | dose: 30.0 mg/kg/injection, schedule: Q01DX Z (ip), vehicle: methylcellulose (MC) 90 % of control

CCOC(=O)C1CCCCC1O (stereo not drawn)
inactive: dose: 50.0 mg/kg/injection, schedule: Q01DX009 (ip), vehicle: saline with Tween-80 103 % of control | [13] 95 % of control | dose: 100.0 mg/kg/injection, schedule: Q04DX002 (ip), vehicle: saline with Tween-80 97 % of control | [14] 103 % of control | dose: 200.0 mg/kg/injection, schedule: Q04DX002 (ip), vehicle: saline with Tween-80 97 % of control | dose: 400.0 mg/kg/injection, schedule: Q04DX002 (ip), vehicle: saline with Tween-80 104 % of control

Cc1ccc(NC2=CC(=O)c3ccccc3C2=O)cc1
inactive: dose: 75.0 mg/kg/injection, schedule: Q01DX001 (ip), vehicle: carboxymethylcellulose (CMC) 93 % of control | dose: 150.0 mg/kg/injection, schedule: Q01DX001 (ip), vehicle: carboxymethylcellulose (CMC) 95 % of control

OC(CF)CCl (stereo not drawn)
inactive: dose: 6.25 mg/kg/injection, schedule: Q01DX009 (ip), vehicle: saline 89 % of control | dose: 12.5 mg/kg/injection, schedule: Q01DX009 (ip), vehicle: saline 96 % of control | dose: 25.0 mg/kg/injection, schedule: Q01DX009 (ip), vehicle: saline 103 % of control

CCOP(=S)(NN=C1CCCCC1)OCC
inactive: [3] 104 % of control | [4] 101 % of control

C[n+]1ccccc1/C=C/c1ccc2c(c1)OCO2
inactive: dose: 12.5 mg/kg/injection, schedule: Q01DX009 (ip), vehicle: Klucel (hydroxypropylcellulose) (HPC) 94 % of control | dose: 12.5 mg/kg/injection, schedule: Q04DX003 (ip), vehicle: Klucel (hydroxypropylcellulose) (HPC) 95 % of control | dose: 25.0 mg/kg/injection, schedule: Q01DX009 (ip), vehicle: Klucel (hydroxypropylcellulose) (HPC) 92 % of control | dose: 25.0 mg/kg/injection, schedule: Q04DX003 (ip), vehicle: Klucel (hydroxypropylcellulose) (HPC) 94 % of control

CC(C(N)=O)N1C(=O)C2C3CCC(O3)C2C1=O (stereo not drawn)
inactive: [9] 97 % of control | [10] 97 % of control | [11] 97 % of control

O=C(CS(=O)(=O)Cc1ccccc1)c1ccccc1
inactive: [6] 98 % of control | [7] 98 % of control | [8] 101 % of control

CCCCCCCCCCCCCCCCC/C=N/Nc1nnc(N/N=C/CCCCCCCCCCCCCCCCC)c2ccccc12
inactive: [15] 95 % of control | [3] 103 % of control | [4] 101 % of control | [5] 101 % of control

CC(=O)Nc1ccc(/C=N\NC(=O)CCCC(=O)N/N=C/c2ccc(NC(C)=O)cc2)cc1
inactive: [15] 104 % of control | [3] 96 % of control | [16] 91 % of control | [4] 92 % of control | [5] 98 % of control | dose: 400.0 mg/kg/injection, schedule: Q01DX009 (ip), vehicle: saline 88 % of control

COC(=O)c1ccccc1N=NNc1ccc(-c2nc(N)nc(N)n2)cc1
inactive: [6] 100 % of control | [2] 100 % of control | [7] 94 % of control | [12] 100 % of control | [8] 95 % of control

Cc1ccc(S(=O)(=O)NC(C)(C)CN)cc1
inactive: dose: 75.0 mg/kg/injection, schedule: Q01DX001 (ip), vehicle: other 103 % of control | dose: 150.0 mg/kg/injection, schedule: Q01DX001 (ip), vehicle: other 101 % of control | dose: 300.0 mg/kg/injection, schedule: Q01DX001 (ip), vehicle: other 95 % of control

CCN(C)CCC(CNC(=O)CN(CC)CC)(c1cccc2ccccc12)C(C)C (stereo not drawn)
inactive: dose: 50.0 mg/kg/injection, schedule: Q01DX009 (ip), vehicle: saline 94 % of control | [16] 91 % of control | [9] 103 % of control | dose: 200.0 mg/kg/injection, schedule: Q01DX009 (ip), vehicle: saline 101 % of control | [10] 103 % of control

COc1cc(/C=N\N=C\c2cc(OC)c(OC)c(OC)c2)cc(OC)c1OC
inactive: [13] 96 % of control | dose: 100.0 mg/kg/injection, schedule: Q04DX003 (ip), vehicle: saline with Tween-80 97 % of control | [14] 96 % of control | dose: 200.0 mg/kg/injection, schedule: Q04DX003 (ip), vehicle: saline with Tween-80 92 % of control | dose: 400.0 mg/kg/injection, schedule: Q01DX009 (ip), vehicle: saline with Tween-80 92 % of control | dose: 400.0 mg/kg/injection, schedule: Q04DX003 (ip), vehicle: saline with Tween-80 92 % of control
